Source: article PMC6911004, “Fragment-based screening identifies molecules targeting the substrate-binding ankyrin repeat domains of tankyrase” (Scientific Reports, 2019)
Where a SMILES comes first, the peptide text is derived from it. [ ]: non-standard residue; d: D form.

Assays:
Format in all cases: binding
TNKS2 ARC4 [1] = target: T1, TNKS2 ARC4 (Homo sapiens, UniProt Q9H2K2); experiment: Fluorescence polarisation (FP) competition assay with Cy5-labelled TBM peptide probe; details: for FP competition, result in words: peptide titrated up to 1 mM; for IC50: 5 nM Cy5-RSPPDGQS probe, 5 µM TNKS2 ARC4
T1 construct: The cell was filled with TNKS2 ARC4 (488–649); His6-GST; made in house; host or cells: E. coli
T1 sequence (Q9H2K2 488-649): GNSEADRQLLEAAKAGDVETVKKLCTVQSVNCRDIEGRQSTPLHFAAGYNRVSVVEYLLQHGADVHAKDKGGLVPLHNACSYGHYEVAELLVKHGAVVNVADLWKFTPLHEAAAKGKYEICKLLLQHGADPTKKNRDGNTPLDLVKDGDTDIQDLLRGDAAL
From the text: Given the anticipated impairment of cell permeability by the N-terminal TBM arginine, we investigated whether the guanidine group could be substituted. To prioritise synthesis efforts, we followed an in-silico docking approach, exploring the importance of the positive charge and hydrogen bonding interactions, linker lengths/flexibility and side chain geometry (see Supplementary Materials and Methods for details). From commercially available side chain alternatives, we identified five potential candidates for R replacements: 1H-imidazole-5-pentanoic acid, 1H-imidazole-1-pentanoic acid, 7-aminoheptanoic acid, D-arginine and L-citrulline (Supplementary Fig. 1). We next synthesised 3BP2 TBM octapeptides, incorporating the five arginine substituents at position 1, followed by fluorescence polarisation (FP) assays to assess competition of the peptides with a Cy5-labelled TBM peptide probe (Supplementary Fig. 1). We used a 16-mer TBM peptide (LPHLQRSPPDGQSFRSW, W introduced to measure A280) derived from the model substrate 3BP2, a signalling adapter protein[4], as a positive control for a competitor, and a corresponding non-binding TBM peptide bearing a glycine-to-arginine substitution at position 6[4] as a negative control. […]
Fluorescence polarisation assay
Unlabelled arginine substituent peptides were titrated up to 1 mM in the presence of 5 nM of a labelled peptide probe (Cy5-RSPPDGQS, JPT Peptide Technologies) and 5 µM TNKS2 ARC4. 3BP2 16-mer peptide was used as a positive control, and the same peptide with the glycine at position 6 mutated to arginine (G6R) was used as a negative control. Plus F ProxiPlates (PerkinElmer) were used with a 2103 Envision Multilabel plate reader (PerkinElmer), fitted with 620 nm (excitation) and 688 nm (emission) filters. Filter bandwidths were 10 nm. A Nanodrop 2000 was used for measuring protein and probe concentrations by UV absorption. TNKS2 ARC4 protein was thawed from -80 ° C, and centrifuged at 13,000 […]
Two independent experiments were performed in technical duplicate. A 2´ stock solution containing TNKS2 ARC4 protein (10 µM) and fluorescently tagged probe (10 nM) in assay buffer (25 mM HEPES-NaOH pH 7.5, 100 mM NaCl, 1 mM TCEP, 0.01% CHAPS) was prepared. A 2-fold dilution series of untagged peptide in assay buffer was made (0 – 2 mM).
Protein and peptide stock solutions were mixed 1:1. Blank samples contained assay buffer only. The plate was sealed, centrifuged for 1 min at 1000 ´ g, and then incubated in the dark for 30 min before reading. Readings were taken with 50 flashes per well, and measured in millipolarisation (mP) units. Data were exported to Microsoft Excel, and analysed in GraphPad Prism 6.0. The means of technical duplicate values were calculated for both experiments, and FP values were plotted against unlabelled peptide concentration. Curves were normalised using the overall mean maximum and minimum FP values of the control 3BP2 TBM peptide. Curves were fitted using a non-linear regression, log(inhibitor) vs. response – variable slope (four parameters) model.
Multiple sequence alignments and amino acid identity mapping
Sequences of tankyrase ARCs were aligned using ClustalX (version 2.0) 4. […]
Supplementary Figure 1. Binding of TBM peptides containing arginine substituents to TNKS2 ARC4, measured in a fluorescence polarisation (FP) competition assay. Data points are means of technical duplicates from two independent experiments. […]

TNKS2 ARC4 [2] = target: T1, TNKS2 ARC4; experiment: T2 relaxation-edited ligand-observed NMR assay; details: for binding to TNKS2 ARC4 by ligand-observed NMR, in words: DSF hit validation
Description: We next sought close structural analogues of hit fragments 3 and 5 to gain early insights into structure-activity relationships (SAR) and binding modes of hit fragments. We initially tested the analogues using both relaxation-edited and waterLOGSY NMR assays against TNKS2 ARC4 (Table 1), followed by protein-observed NMR if binding was detected in both ligand-observed NMR experiments.
(§1) Fragments were dispensed in duplicate into a 384-well plate (250 nL, 100 mM stock in DMSO). Wells were backfilled with DMSO (2.25 μL). Tankyrase ARC protein (47.5 μL in 25 mM HEPES, pH 7.5, 100 mM NaCl, 2 mM TCEP, 10% D2O; 20 μM final protein concentration in the assay) was added to the ‘protein’ samples; buffer only (47.5 μL) was added to the ‘compound-only’ samples. Solutions were transferred to 1.7 mm NMR tubes using a Gilson liquid handling system. ^1H NMR spectra were recorded, with the DMSO and water signals dampened. A relaxation spin filter was applied at 400 ms[65]. Data were processed using Bruker Topspin 3.14. Lines were broadened with LB = 3.0, and the baseline was corrected between 6.0–10.0 ppm. The average integral for all peaks between 6.0–10.0 ppm was calculated, and the difference between compound-only and compound-plus-protein samples was compared. A reduction in signal integrals of ≥15% was classified as a hit. For competitive experiments, 3BP2 16-mer peptide (100 μM) was added, and the spectra were recorded and processed as above. The variability in signal reduction in the relaxation-edited experiment was previously determined as approximately ± 10% (Liu et al., unpublished observations).

TNKS2 ARC5 [3] = target: T2, TNKS2 ARC5 (Homo sapiens, UniProt Q9H2K2); experiment: T2 relaxation-edited ligand-observed NMR assay; details: DSF hit validation; for binding to TNKS2 ARC5 by ligand-observed NMR, in words: relaxation-edited and waterLOGSY; for competition with the 3BP2 TBM peptide by relaxation-edited NMR: ARC used for competition not given
T2 construct: followed by TNKS2 ARC5 (1 μL, 100 μM stock); His6-GST; made in house; host or cells: E. coli
From the text: (§2) 39 hits from the DSF screen were suitable for follow-up by ligand-observed NMR methods. We re-purchased fragments and performed T2 relaxation-edited (CPMG-edited) and waterLOGSY experiments for each fragment with TNKS2 ARC5. We explored saturation transfer difference (STD) NMR, also using TNKS2 ARC5, but the assay was not sensitive enough to produce a reliable binding signal, likely due to the relatively small size of a single ARC protein (data not shown). High ligand concentrations were required to achieve sufficient signal, which in turn could lead to false-positive hits due to non-specific binding.
Using the relaxation-edited assay, we tested each fragment in three independent measurements (Fig. 2C), unless we obtained two negative results (non-binding) in the first two experiments. […] As a negative NOE for the compound-only sample could indicate aggregation, we flagged these compounds as potentially problematic. We identified 14 fragments that bound to TNKS2 ARC5 by both relaxation-edited and waterLOGSY methods (0.78% hit rate). We next tested whether binding of these fragments occurred competitively with the 3BP2 TBM peptide, and also if they bound to TNKS2 ARC4, as competition with peptide binders at various different ARCs will be a prerequisite for an efficient substrate binding antagonist. Three fragments (1, 2, 3) bound to both TNKS2 ARC4 and ARC5 and were competitive with the TBM peptide (0.16% hit rate) (Fig. 2E). Three further fragments also bound to both ARCs, but were not TBM competitive by NMR.
as §1

TNKS2 ARC5 [4] = target: T2, TNKS2 ARC5; experiment: WaterLOGSY NMR assay
From the text: as §2
Using the relaxation-edited assay, we tested each fragment in three independent measurements (Fig. 2C), unless we obtained two negative results (non-binding) in the first two experiments. […] As a negative NOE for the compound-only sample could indicate aggregation, we flagged these compounds as potentially problematic. We identified 14 fragments that bound to TNKS2 ARC5 by both relaxation-edited and waterLOGSY methods (0.78% hit rate). […]
Fragments were dispensed in duplicate into a 384-well plate (250 nL, 100 mM stock in DMSO). […] Solutions were transferred to 1.7 mm NMR tubes using a Gilson liquid handling system. ^1H NMR spectra were recorded, with the DMSO signal dampened. […]

T2 sequence (Q9H2K2 641-800): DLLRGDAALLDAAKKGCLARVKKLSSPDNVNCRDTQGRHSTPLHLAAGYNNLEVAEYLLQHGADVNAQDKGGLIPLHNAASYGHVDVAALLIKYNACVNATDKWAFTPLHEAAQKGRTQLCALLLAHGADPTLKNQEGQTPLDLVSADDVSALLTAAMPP

## 7-aminoheptanoic acid
TNKS2 ARC4 [1]
  FP competition, result in words: poor competition

## N=C(N)NCCC[C@H](N)C(=O)N[C@@H](CO)C(=O)N1CCC[C@H]1C(=O)N1CCC[C@H]1C(=O)N[C@@H](CC(=O)O)C(=O)NCC(=O)N[C@@H](CCC(N)=O)C(=O)N[C@@H](CO)C(=O)O [8-mer RSPPDGQS TBM peptide, RSPPDGQS, reference compound] (H-RSPPDGQS-OH)
TNKS2 ARC4 [1]
  IC50: 34 µM

## N=C(N)NCCC[C@@H](N)C(=O)N[C@@H](CO)C(=O)N1CCC[C@H]1C(=O)N1CCC[C@H]1C(=O)N[C@@H](CC(=O)O)C(=O)NCC(=O)N[C@@H](CCC(N)=O)C(=O)N[C@@H](CO)C(=O)O [D-arginine] (H-[dR]SPPDGQS-OH)
TNKS2 ARC4 [1]
  IC50: 175 µM

## O=S(=O)(Nc1cccc(O)c1)c1ccc(Cl)cc1 [compound 1]
TNKS2 ARC4 [2]
  binding to TNKS2 ARC4 by ligand-observed NMR, in words: bound
TNKS2 ARC5 [3]
  binding to TNKS2 ARC5 by ligand-observed NMR, in words: bound
  competition with the 3BP2 TBM peptide by relaxation-edited NMR: competitive
TNKS2 ARC5 [4]
  waterLOGSY: negative NOE signal

## COc1ccc2c(OC(C)=O)coc2c1 [compound 2]
TNKS2 ARC4 [2]
  binding to TNKS2 ARC4 by ligand-observed NMR, in words: bound
TNKS2 ARC5 [3]
  binding to TNKS2 ARC5 by ligand-observed NMR, in words: bound
  competition with the 3BP2 TBM peptide by relaxation-edited NMR: competitive

## NC(=O)Cc1coc2ccc3ccccc3c12 [compound 4]
TNKS2 ARC4 [2]; 3BP2 16-mer peptide 100 μM
  T2 relaxation-edited: competition with 3BP2 TBM peptide: competitive

## citrulline
TNKS2 ARC4 [1]
  FP competition, result in words: poor competition
